In article PMC11811597, “Phenomics‐Based Discovery of Novel Orthosteric Choline Kinase Inhibitors” (Angewandte Chemie (International Ed. in English), 2025):
Read-outs that look alike come from different tables or passages of the source.

Columns and labels:
ZNF644 = assay: Competitive affinity-based chemoproteomics (UNC0965 matrix), MCF7 lysate; type: binding, human; settings: 20 μM competitor, n=2
Method: (§1) A-366 and UNC0638 were purchased from Tocris. ARIAD and V-11-07-11 were purchased from Wuxi Apptec. UNC0737 and UNC0965 were synthesised as previously described.[1] Hemicholinium-3 and pyruvate kinase/lactic dehydrogenase enzymes were purchased from Sigma Aldrich. Aqueous and organic solvents were MS-grade and acquired by Sigma Aldrich unless stated otherwise.
(§2) MDA-MB-231, MCF7 and HEK293 cells were cultured in DMEM (Gibco, #11965092) supplemented with 10% FBS. K562 were cultured in IMDM (Gibco, #12440053) supplemented with 10% FBS. HepG2 were cultured in MEM (Gibco, #11095080) supplemented with 10 % FBS. […]
(§3) cultured in McCoy’s 5A (Sigma, M8403) supplemented with 10 % FBS and 1x GlutaMAX (Gibco, #35050061). Cells were maintained at 37 °C in a humidified 5% CO2 atmosphere. Peripheral blood mononuclear cells (PBMC) were isolated from healthy blood donors by density centrifugation. […]
(§4) Cell Titer-Glo® reagent was added to each well and total luminescence readings were performed within 15 min using the PHERAstar FSX (BMG Labtech). […]
(§5) Digested samples were analysed by nano-UPLC–MS/MS using a Dionex Ultimate 3000 nano UPLC fitted with an EASY spray column (75 μm × 500 mm, 2 μm particle size, Thermo Scientific), coupled to an Orbitrap Q Exactive instrument. […]

CHKA = CHKA (Homo sapiens, UniProt P35790); assay: Isothermal calorimetry (ITC); type: binding; set-up: host or cells: E. coli BL21(DE3)
Chain of CHKA (P35790 75-457 limits assumed): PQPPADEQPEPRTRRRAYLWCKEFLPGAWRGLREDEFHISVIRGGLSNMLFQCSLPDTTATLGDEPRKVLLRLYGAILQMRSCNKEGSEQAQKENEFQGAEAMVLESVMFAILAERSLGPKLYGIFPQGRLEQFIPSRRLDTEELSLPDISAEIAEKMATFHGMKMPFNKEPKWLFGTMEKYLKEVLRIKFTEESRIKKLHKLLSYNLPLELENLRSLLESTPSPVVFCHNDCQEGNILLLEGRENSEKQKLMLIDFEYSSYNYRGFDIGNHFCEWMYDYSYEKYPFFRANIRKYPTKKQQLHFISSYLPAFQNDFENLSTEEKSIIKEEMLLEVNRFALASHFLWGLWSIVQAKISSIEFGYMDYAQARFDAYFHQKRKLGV
Method: mM NaCl, 5% glycerol, 500 mM imidazole, 0.5% TCEP, pH 7.5), the eluent was concentrated, and further purified by size exclusion chromatography using a HiLoad 16/600 Superdex S200 column (Cytiva) pre-equilibrated in Buffer C (20 mM HEPES, 150 mM NaCl, pH 7.5). The resulting protein purity was assessed by SDS-PAGE, and protein identity was confirmed by tryptic digest analysis. Protein concentration was determined to be 35.5 mg/mL, and was calculated using a theoretical molar extinction coefficient of 58830 M-1cm-1 as determined by ProtParam.[5]
Isothermal Calorimetry (ITC)
ITC experiments were performed in a buffer containing 20 mM HEPES pH 7.5 and 200 mM NaCl, using an VP-ITC microcalorimeter (MicroCal) at 15 °C. The protein concentration was 200 µM and compounds were tested at 20 µM. The titrations were conducted using an initial injection of 4 μL followed by further 29 injections of 8 μL each. Thermodynamic parameters were calculated using ΔG = ΔH − TΔS = −RT ln KB, where ΔG, ΔH, and ΔS are the changes in free energy, enthalpy, and entropy of binding, respectively. Single binding models were employed to fit the data. […]

FAM195A = molecular target: T1, FAM195A (Homo sapiens, UniProt Q9BUT9); assay: Competitive affinity-based chemoproteomics (UNC0965 matrix), MCF7 lysate; type: binding; settings: 20 μM competitor, n=2
T1 construct: endogenous in cells; host or cells: MCF7 whole cell lysate
T1 sequence (Q9BUT9 whole entry): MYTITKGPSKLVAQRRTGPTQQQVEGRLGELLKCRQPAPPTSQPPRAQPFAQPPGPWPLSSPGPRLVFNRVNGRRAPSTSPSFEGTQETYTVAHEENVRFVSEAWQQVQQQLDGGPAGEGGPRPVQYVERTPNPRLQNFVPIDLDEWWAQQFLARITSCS
Method: as §1, §2, §3, §4, §5

Structure (SMILES)	FC vs DMSO (log2 competition), ZNF644 (ZNF644)	Kd (CHKA; ITC, 15 °C, recombinant human CHKA, read-out: KD) [µM]	FC vs DMSO (log2 competition), FAM195A (FAM195A)	Kd (CHKA) [µM]
COc1cc2c(NC3CCN(C(C)C)CC3)nc(C3CCCCC3)nc2cc1OCCCN1CCCC1 [UNC0638]	-2.1553	0.27	-1.845	–
COc1cc2c(N(C)C3CCN(C(C)C)CC3)nc(C3CCCCC3)nc2cc1OCCCN1CCCC1 [UNC0737]	0.3825	–	-0.06296	0.0593
